The text below walks through data of patent publication US12440466B2, “Fatty acid derivatives for treating non-alcoholic steatohepatitis” (BASF AS, priority 2017, dated 2025).

The structures appear in SMILES notation. Marks after values point to notes of the source that are not given here.

The test system of the test is APOE*3Leiden.CETP mice. Nature of the test: Hepatic free cholesterol, cholesterol ester and triglyceride content (HPTLC) in APOE*3Leiden.CETP mice. In kind it is in vivo, mouse. To be noted: ApoE*3L-CETP mice, Western diet 0.25% cholesterol, 4 weeks; Compound A LD 0.3 mmol/kg bw/day; EPA/DHA ethyl esters HD 3 mmol/kg bw/day. The text has this: The APOE*3Leiden.CETP double transgenic mouse expresses a variant of the human apolipoprotein E3 (APOE3), the APOE*3Leiden, in addition to the human apolipoprotein C1 (APOC1) and CETP. […] By increasing the cholesterol content of the diet in this model, all the characteristics of human NASH develop.
In Biological Example 25, the effects of Compound A alone and in combination with omega-3 fatty acid were studied. APOE*3Leiden.CETP mice were placed on a semi-synthetic high fat diet (24% fat w/w) with […] w/w. After a 4-week run-in period, low-responder mice were removed from the study and the remaining mice were sub-divided into groups of 8 mice each, matched for plasma cholesterol, triglycerides, blood glucose, body weight and age (t=0) and treatment was started. To facilitate mixing of the compounds, sunflower oil was added to a total oil volume of 10 mL/kg diet. Compound A was administered at 0.3 mmol/kg bw/day whilst the omega-3 fatty acid ethyl-esters (85% w/w EPA/DHA ethyl-esters) were administered at 3.0 mmol/kg bw/day. Both Compound A and the omega-3 ethyl esters were administered orally as admix to the high-fat diet. After 4 weeks of treatment, mice were sacrificed by C02 asphyxiation, the liver was collected and the hepatic content of free cholesterol, cholesterol ester and triglyceride were measured after extraction and separation by high performance thin layer chromatography.

`CC/C=C\C/C=C\C/C=C\C/C=C\C/C=C\CCCCOC(CC)C(=O)O` (stereo not drawn) [Compound A, 2-((5Z,8Z,11Z,14Z,17Z)-icosa-5,8,11,14,17-pentaenyloxy)butanoic acid]: the “Hepatic CE” value is listed as 17*, the “Hepatic FC” value is 9.5 and the “Hepatic TG” value was found to be 58.8.
